Data set [1] has as its system A549 cells. Kind of data set: Cellular proliferation/cytotoxicity assay (Alamar Blue), A549 cells. To be noted: read-out: Anti-proliferative/Cytotoxic activity (A549 cells). Background: Resazurin is reduced to fluorescent resorufin, in cell work by metabolically active cells.
Procedure: (§1) The anti-proliferative activity of the compounds as described herein, is evaluated using the OvCAR3, HCT116 and A549 cell lines and the Alamar Blue (Resazurin) cell viability assay (O'Brien et al. Eur J Biochem 267, 5421-5426, 2000). Resazurin is reduced to the fluorescent resorufin by cellular dehydrogenase activity, correlating with viable, proliferating cells. Test compounds are dissolved as 10 mM solutions in DMSO and subsequently diluted. Cells like HCT116 or A549 cells were seeded into 96 well flat bottom plates at a density of 10000 cells/well (OvCAR3 cells), 1000 cells/well (HCT116 cells) or 2000 cells/well (A549 cells) in a volume of 200 μl/well. 24 hours after seeding, 1 μl each of the compound dilutions are added into each well of the 96 well plates. Each compound dilution is tested as at least as duplicates. Wells containing untreated control cells were filled with 200 μl DMEM (Dulbecco's Modified Eagle Medium) containing 0.5 vol % v:v DMSO. The cells are then incubated with the substances for 72 h at 37° C. in a humidified atmosphere containing 5 vol % CO2. To determine the viability of the cells, 20 μl of a Resazurin solution (90 mg/l) are added. After 4 h incubation at 37° C., the fluorescence is measured by extinction at ? =544 nm and an emission of ? =590 nm (Wallac Victor2; Perkin Elmer, USA). For the calculation of the cell viability, the emission value from untreated cells is set as 100% viability and the fluorescence intensity of treated cells are set in relation to the values of untreated cells. Viabilities are expressed as % values. The corresponding IC50 values of the compounds for cytotoxic activity are determined from the concentration-effect curves by means of non-linear regression. The analysis of the data is performed using a biostatistical program (Graph Pad Prism, USA).
Data set [2] deals with phospho-Akt (Ser473). As to the kind of experiment: Cellular PI3K/Akt pathway assay (phospho-Akt ELISA). The class given is cell-based. To be noted: MCF7 cells, β-Heregulin stimulated, 48 h, phospho-Akt1 (Ser473) ELISA. The procedure:
In order to study the cellular activity of the compounds according to the present invention, an Enzyme Linked Immunosorbent Assay (ELISA)-based assay has been used specific phospho-AKT. The assay is based on a Sandwich ELISA kit (PathScan™ Phospho-Akt1 (Ser473); Cell Signaling, USA; #7160).
The ELISA Kit detects endogenous levels of phosphorylated Akt protein. A phospho-Akt (Ser473) antibody (Cell Signaling, USA; #9271) has been coated onto the microwells. After incubation with cell lysates, the coated antibody captures the phosphorylated Akt protein. Following extensive washing, Akt1 monoclonal antibody (Cell Signaling, USA; #2967) is added to detect the captured phospho-Akt1 protein. HRP-linked anti-mouse antibody (HRP: horseradish peroxidase; Cell Signaling, USA; #7076) is then used to recognize the bound detection antibody. HRP substrate (=3,3′,5,5′-tetramethylbenzidine (TMB); Cell Signaling, USA; #7160) is added to develop colour. The magnitude of optical density for this developed color is proportional to the quantity of phosphorylated Akt protein. MCF7 cells (ATCC HTB-22) are seeded into 96 well fate bottom plates at a density of 10000 cells/well. 24 hours after seeding, the cells are serum starved using low-serum medium (IMEM media including 0.1% charcoal treated FCS (FCS: fetal calf serum)). […] To stimulate Akt phosphorylation, β-Heregulin (20 ng/ml β-HRG) is added in parallel to the compounds. Wells containing unstimulated control cells (no β-Heregulin stimulation) are incubated with or without the diluted compound. Wells containing untreated control cells (no compound) are filled with medium containing 0.5% v:v DMSO and are or are not stimulated with β-Heregulin.
Cells are harvested and lysed with brief sonification in 1× cell lysis buffer (20 mM Tris (pH7.5), 150 mM NaCl, 1 mM ethylene diaminetetraacetate (EDTA), 1 mM ethylene glycolbis(2-aminoethyl)-N,N,N′,N′-tetraacetic acid (EGTA), 1 vol % Triton X-100, 2.5 mM sodium pyrophosphate, 1 mM β-glycerolphosphate, 1 mM Na3VO4, 1 μg/ml leupeptin). The lysate is centrifuged for 10 min. at 4° C. and the supernatant is transferred to a new tube. 100 μl of sample diluent (0.1 vol % Tween-20, 0.1 vol % sodium azide in phosphate buffered saline (PBS)) are added to a microcentrifuge tube and 100 μl of cell lysate are transferred into the tube and vortexed. 100 μl of each diluted cell lysate are added to the appropriate ELISA well, and incubated overnight at 4° C. The plates are washed 4 times with 1× wash buffer (1 vol % tween-20, 0.33 vol % thymol, in PBS). Next 100 μl of detection antibody (Akt1 (2H10) monoclonal detection antibody; Cell Signaling, USA; #2967) are added to each well and incubation continued for 1 h at 37° C. The washing procedure is repeated between each step. 100 μl of secondary antibody (anti-mouse IgG HRP-linked antibody; Cell Signaling, USA; #7076) are added to each well and incubated for 30 min. at 37° C. Than, 100 μl of TMB substrate (0.05% 3,3′,5,5′ tetramethylbenzidine, 0.1% hydrogen peroxide, complex polypeptides in a buffered solution; Cell Signaling, USA; #7160) are added to each well and incubated for 30 min. at 25° C. Finally 100 μl of STOP solution (0.05 vol % α and β unsaturated carbonyl compound) are added to each well and the plate are shaked gently. The absorbance is measured at ? 450 nm (Wallac Victor2; Perkin Elmer, USA) within 30 min. after adding the STOP solution. The analysis of the data is performed using a statistical program (Excel; Microsoft, USA). Preferred compounds show an inhibitory activity towards Akt phosphorylation below 10 μM.
Background: In an ELISA, binding on a coated surface is turned into a signal by an enzyme label.

Data set [3] has as its system A549 cells.
Procedure: as §1
For data set [4], the system named is OvCAR3 cells. Kind of data set: Cellular proliferation/cytotoxicity assay (Alamar Blue), OvCAR3 cells. Conditions: Homo sapiens, OVCAR-3, 72 h, Alamar Blue (Resazurin), read-out: Anti-proliferative/Cytotoxic activity (OvCAR3 cells). The data set is classed as cell-based. The source says: Viabilities are expressed as % values.
[5] abbreviates: A549 cells, 72 h, Alamar Blue (Resazurin).

Like-named read-outs stand apart in the source and are kept apart here. Where only a bound is given, the exact number is not on record here.

Our source for the IC50 values is patent publication US9387204B2, “Fused bicyclic imidazoles” (BAYER INTELLECTUAL PROPERTY GmbH, priority 2007, dated 2016).

For the compound `Cc1cccc(-c2nnc(C3CCN(Cc4ccc(-c5nc6sccn6c5-c5ccccc5)cc4)CC3)[nH]2)n1` [Example 66, ′6-[4-({4-[5-(6-methylpyridin-2-yl)-4H-1,2,4-triazol-3-yl]piperidin-1-yl}methyl)phenyl]-5-phenylimidazo[2,1-b][1,3]thiazole], the IC50 was less than 10 µM in data set [1] (setting [5]) and less than 1 µM in data set [2].
For `c1ccc(-c2c(-c3ccc(CN4CCC(c5nnc(-c6ccco6)[nH]5)CC4)cc3)nc3sccn23)cc1` [Example 93, ′6-[4-({4-[5-(2-furyl)-4H-1,2,4-triazol-3-yl]piperidin-1-yl}methyl)phenyl]-5-phenylimidazo[2,1-b][1,3]thiazole], in that order: less than 10 µM and less than 1 µM.
`N#Cc1cccn2c(-c3ccccc3)c(-c3ccc(CN4CCC(c5nnc(-c6ccccc6)[nH]5)CC4)cc3)nc12` [Example 117, 3-phenyl-2-(4-{[4-(5-phenyl-4H-1,2,4-triazol-3-yl)piperidin-1-yl]methyl}phenyl)imidazo[1,2-a]pyridine-8-carbonitrile]: the IC50 in data set [1] (Homo sapiens, A549, 72 h) was greater than 10 µM; in data set [2] (Homo sapiens) it was less than 1 µM.
For `Cc1cccc(-c2nnc(C3CCN(Cc4ccc(-c5nc6c(C#N)cccn6c5-c5ccccc5)cc4)CC3)[nH]2)n1` [Example 62, 2-[4-({4-[5-(6-methylpyridin-2-yl)-4H-1,2,4-triazol-3-yl]piperidin-1-yl}methyl)phenyl]-3-phenylimidazo[1,2-a]pyridine-8-carbonitrile], in that order: greater than 10 µM and less than 1 µM.
As to `N#Cc1cccn2c(-c3ccccc3)c(-c3ccc(CN4CCC(c5nnc(-c6cccs6)[nH]5)CC4)cc3)nc12` [Example 98, ′3-phenyl-2-[4-({4-[5-(2-thienyl)-4H-1,2,4-triazol-3-yl]piperidin-1-yl}methyl)phenyl]imidazo[1,2-a]pyridine-8-carbonitrile], the results for the IC50 in data set [3] and in data set [2] were greater than 10 µM and less than 1 µM, respectively.
Consider `Cc1cccc(-c2nnc(C3CCN(Cc4ccc(-c5nc6cc(C#N)ccn6c5-c5ccccc5)cc4)CC3)[nH]2)n1` [Example 61, 2-[4-({4-[5-(6-methylpyridin-2-yl)-4H-1,2,4-triazol-3-yl]piperidin-1-yl}methyl)phenyl]-3-phenylimidazo[1,2-a]pyridine-7-carbonitrile], for which the IC50 in data set [1] (Homo sapiens, A549, 72 h) is greater than 10 µM; in data set [2] (Homo sapiens) it was less than 1 µM.
For `N#Cc1cccn2c(-c3ccccc3)c(-c3ccc(CN4CCC(c5nnc(-c6ccncc6)[nH]5)CC4)cc3)nc12` [Example 59, ′3-phenyl-2-(4-{[4-(5-pyridin-4-yl-4H-1,2,4-triazol-3-yl)piperidin-1-yl]methyl}phenyl)imidazo[1,2-a]pyridine-8-carbonitrile], the IC50 in data set [3] was less than 10 µM; in data set [2], less than 1 µM.
Regarding `c1ccc(-c2c(-c3ccc(CN4CCC(c5nnc(-c6ccc[nH]6)[nH]5)CC4)cc3)nc3ncccn23)cc1` [Example 106, ′3-phenyl-2-[4-({4-[5-(1H-pyrrol-2-yl)-4H-1,2,4-triazol-3-yl]piperidin-1-yl}methyl)phenyl]imidazo[1,2-a]pyrimidine], the results for the IC50 in data set [1] (setting [5]) and in data set [2] were greater than 10 µM and less than 1 µM, respectively.
Regarding `N#Cc1cccn2c(-c3ccccc3)c(-c3ccc(CN4CCC(c5n[nH]c(-c6ccccn6)n5)CC4)cc3)nc12` [Example 5, 3-phenyl-2-(4-{[4-(5-pyridin-2-yl-1,2,4-triazol-3-yl)piperidin-1-yl]methyl}phenyl)imidazo[1,2-a]pyridine-8-carbonitrile], the IC50 in data set [1] (Homo sapiens, A549, 72 h) is less than 10 µM; in data set [4] it was less than 10 µM.
As to `N#Cc1cccn2c(-c3ccccc3)c(-c3ccc(CN4CCC(c5nnc(-c6ncccn6)[nH]5)CC4)cc3)nc12` [Example 77, 3-phenyl-2-[4-({4-[5-(pyrimidin-2-yl)-4H-1,2,4-triazol-3-yl]piperidin-1-yl}methyl)phenyl]imidazo[1,2-a]pyridine-8-carbonitrile], the IC50 was greater than 10 µM in data set [1] (Homo sapiens, A549, 72 h) and less than 1 µM in data set [2] (Homo sapiens).
For `COC(=O)c1ccn2c(-c3ccccc3)c(-c3ccc(CN4CCC(c5nnc(-c6ccccn6)[nH]5)CC4)cc3)nc2c1` [Example 124, methyl 3-phenyl-2-[4-({4-[5-(pyridin-2-yl)-4H-1,2,4-triazol-3-yl]piperidin-1-yl}methyl)phenyl]imidazo[1,2-a]pyridine-7-carboxylate], in that order: greater than 10 µM and less than 1 µM.
For `COc1ccn2c(-c3ccccc3)c(-c3ccc(CN4CCC(c5nnc(-c6cccc(C)n6)[nH]5)CC4)cc3)nc2c1` [Example 68, ′7-methoxy-2-[4-({4-[5-(6-methylpyridin-2-yl)-4H-1,2,4-triazol-3-yl]piperidin-1-yl}methyl)phenyl]-3-phenylimidazo[1,2-a]pyridine], the IC50 was less than 10 µM in data set [3] and less than 1 µM in data set [2].
Turning to `Clc1ccc2nc(-c3ccc(CN4CCC(c5n[nH]c(-c6ccccn6)n5)CC4)cc3)c(-c3ccccc3)n2n1` [Example 31, 6-chloro-3-phenyl-2-(4-{[4-(5-pyridin-2-yl-1,2,4-triazol-3-yl)piperidin-1-yl]methyl}phenyl)imidazo[1,2-b]pyridazine], the IC50 in data set [1] (Homo sapiens, A549, 72 h) is greater than 10 µM; in data set [4], less than 10 µM.
As to `c1ccc(-c2nnc(C3CCN(Cc4ccc(-c5nc6sccn6c5-c5ncco5)cc4)CC3)[nH]2)nc1` [Example 43, 5-(1,3-oxazol-2-yl)-6-(4-{[4-(5-pyridin-2-yl-4H-1,2,4-triazol-3-yl)piperidin-1-yl]methyl}phenyl)imidazo[2,1-b][1,3]thiazole], in data set [2] (Homo sapiens), the IC50 lay within 1 to 10 µM.
As to `NC(=O)c1cccn2c(-c3ccccc3)c(-c3ccc(CN4CCC(c5n[nH]c(-c6ccccn6)n5)CC4)cc3)nc12` [Example 40, 3-phenyl-2-(4-{[4-(5-pyridin-2-yl-1,2,4-triazol-3-yl)piperidin-1-yl]methyl}phenyl)imidazo[1,2-a]pyridine-8-carboxamide], the IC50 in data set [1] (Homo sapiens, A549, 72 h) is greater than 10 µM; in data set [4] it was less than 10 µM.
`COc1nccn2c(-c3ccccc3)c(-c3ccc(CN4CCC(c5nnc(-c6cccc(C)n6)[nH]5)CC4)cc3)nc12` [Example 65, ′8-methoxy-2-[4-({4-[5-(6-methylpyridin-2-yl)-4H-1,2,4-triazol-3-yl]piperidin-1-yl}methyl)phenyl]-3-phenylimidazo[1,2-a]pyrazine]: the figures for the IC50 in data set [1] (setting [5]) and in data set [2] were less than 10 µM and less than 1 µM, respectively.
Take `N=C(N)c1cccn2c(-c3ccccc3)c(-c3ccc(CN4CCC(c5n[nH]c(-c6ccccn6)n5)CC4)cc3)nc12` [Example 33, 3-phenyl-2-(4-{[4-(5-pyridin-2-yl-1,2,4-triazol-3-yl)piperidin-1-yl]methyl}phenyl)imidazo[1,2-a]pyridine-8-carboximidamide]: the IC50 in data set [1] (Homo sapiens, A549, 72 h) was less than 10 µM; in data set [4] it was less than 10 µM.
Consider `N#Cc1cccn2c(-c3ccccc3)c(-c3ccc(CN4CCC(c5nnc(-c6ccc[nH]6)[nH]5)CC4)cc3)nc12` [Example 105, ′3-phenyl-2-[4-({4-[5-(1H-pyrrol-2-yl)-4H-1,2,4-triazol-3-yl]piperidin-1-yl}methyl)phenyl]imidazo[1,2-a]pyridine-8-carbonitrile], for which the IC50 in data set [3] was less than 10 µM; in data set [2], less than 1 µM.
